Among the data in patent US12686687B2, “Compounds and uses thereof” (Foghorn Therapeutics Inc., priority 2019, dated 2026) are IC50 and DC50 values, retold here.

Molecules are shown by their SMILES. Bounds are passed on as bounds.

One experiment addresses T1, BRD9 bromodomain (Flag-BRD9 P133-K239; Swiss Prot Q9H8M2) (Homo sapiens, UniProt Q9H8M2).
T1 construct: His-Flag-BRD9 (P133-K239); Swiss Prot Q9H8M2; His6 with TEV site (mgsshhhhhhenlyfq/) (N, cleaved yes); made in house
T1 sequence (Q9H8M2 133-239): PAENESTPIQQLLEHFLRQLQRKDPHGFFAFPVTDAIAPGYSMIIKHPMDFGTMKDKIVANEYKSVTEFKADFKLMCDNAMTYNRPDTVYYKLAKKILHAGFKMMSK
The experiment is described as follows: BRD9 bromodomain TR-FRET competition binding assay. Particulars: 3 nM Flag-BRD9, 3.75 nM biotinylated ligand, 90 minutes at room temperature. How it is done:
Cleaved His tag was removed by purification. […] DMSO or 3-fold serially diluted compounds were then added to the Proxiplate followed by addition of Flag-BRD9. After a 10-minute incubation at room temperature, Eu-W1024 anti-FLAG (PerkinElmer, AD0273) was added.
Take `COc1ccc(-c2cn(C)c(=O)c3cc(-c4ncc[nH]4)sc23)cc1OC` [Compound B9, 7-(3,4-dimethoxyphenyl)-2-(1H-imidazol-2-yl)-5-methyl-4H,5H-thieno[3,2-c]pyridine-4-one]: the IC50 is greater than 10 nM.
The molecule `COc1cc(-c2cn(C)c(=O)c3cc(NC(=O)C4CN(C)CCO4)sc23)cc(OC)c1CN(C)C` (centres unmarked) [Compound B4, N-(7-[4-[(Dimethylamino)methyl]-3,5-dimethoxyphenyl]-5-methyl-4-oxo-4H,5H-thieno[3,2-c]pyridin-2-yl)-4-methylmorpholine-2-carboxamide Formic Acid] registered an IC50 greater than 10 nM.
The same measure, in the same setting: in the case of `COc1cc(-c2cn(C)c(=O)c3cc(NC(=O)C4CCN(C)CC4)sc23)cc(OC)c1CN(C)C` [Compound B3, N-(7-[4-[(dimethylamino)methyl]-3,5-dimethoxyphenyl]-5-methyl-4-oxo-4H,5H-thieno[3,2-c]pyridin-2-yl)-1-methylpiperidine-4-carboxamide] it was greater than 10 nM; in that of `COc1cc(-c2cn(C)c(=O)c3cc(-c4nc5ccncc5[nH]4)sc23)cc(OC)c1CN(C)C` [Compound B2, 7-[4-[(dimethylamino)methyl]-3,5-dimethoxyphenyl]-2-[3H-imidazo[4,5-c]pyridin-2-yl]-5-methylthieno[3,2-c]pyridin-4-one], less than 10 nM; in that of `COc1cc(-c2cn(C)c(=O)c3cc(C(=O)NC4CCC(=O)NC4)sc23)cc(OC)c1CN(C)C` (centres unmarked) [Compound B5, 7-[4-[(dimethylamino)methyl]-3,5-dimethoxyphenyl]-5-methyl-4-oxo-N-(6-oxopiperidin-3-yl)-4H,5H-thieno[3,2-c]pyridine-2-carboxamide], less than 10 nM.
Still for that read-out and setting: to `Cn1cc(-c2cccc(C(F)(F)F)c2)c2sc(C(=N)NC3CCS(=O)(=O)NC3)cc2c1=O` (centres unmarked) [Compound B1, N-(1,1-dioxo-1λ6,2-thiazinan-4-yl)-5-methyl-4-oxo-7-[3-(trifluoromethyl)phenyl]thieno[3,2-c]pyridine-2-carboximidamide] belongs greater than 10 nM; to `COc1cc(-c2cn(C)c(=O)c3cc(C(=O)NC4CCN(C)CC4)sc23)cc(OC)c1CN(C)C` [Compound B6, 7-[4-[(dimethylamino)methyl]-3,5-dimethoxyphenyl]-5-methyl-N-(1-methylpiperidin-4-yl)-4-oxo-4H,5H-thieno[3,2-c]pyridine-2-carboxamide], less than 10 nM.

The target of the next experiment is T2, Nanoluciferase-BRD9 fusion protein (3×FLAG-NLuc-BRD9) in SYO-1 cells (Homo sapiens, UniProt Q9H8M2).
T2 construct: expressed in transfected cells; host or cells: SYO-1
T2 sequence (Q9H8M2 1-597): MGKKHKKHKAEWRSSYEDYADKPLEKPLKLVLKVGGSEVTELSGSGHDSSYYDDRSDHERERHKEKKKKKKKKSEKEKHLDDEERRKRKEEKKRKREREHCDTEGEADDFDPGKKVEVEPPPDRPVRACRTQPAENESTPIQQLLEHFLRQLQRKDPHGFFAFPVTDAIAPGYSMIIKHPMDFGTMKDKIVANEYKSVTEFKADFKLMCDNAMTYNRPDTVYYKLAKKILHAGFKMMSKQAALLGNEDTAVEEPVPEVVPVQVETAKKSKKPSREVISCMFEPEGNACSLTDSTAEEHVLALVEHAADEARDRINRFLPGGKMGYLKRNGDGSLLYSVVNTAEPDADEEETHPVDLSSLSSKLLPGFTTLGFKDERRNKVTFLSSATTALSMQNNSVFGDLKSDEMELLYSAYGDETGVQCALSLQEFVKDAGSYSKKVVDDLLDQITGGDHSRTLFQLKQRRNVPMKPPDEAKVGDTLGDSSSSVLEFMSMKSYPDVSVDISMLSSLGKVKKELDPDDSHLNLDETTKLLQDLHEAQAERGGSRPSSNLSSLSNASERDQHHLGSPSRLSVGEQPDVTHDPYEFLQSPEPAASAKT
Put plainly: SYO1 BRD9 NanoLuc degradation assay. Type of experiment: cell-based. Particulars: Table 6B; SYO-1 cells expressing 3×FLAG-NLuc-BRD9, 6 hours incubation, 1 μM top dose; read-out: SYO1 BRD9-NanoLuc degradation IC50. A digest of the protocol: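 Stable SYO-1 line expressing 3×FLAG-NLuc-BRD9 was seeded at 8000 cells/well, then treated next day for 6 h with 10-point 3-fold dilutions (top 1 μM final). Nano-Glo luminescence was read. % inhibition was normalised to DMSO (high control) and 1 μM reference BRD9 degrader (low control).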
With `COc1cc(-c2cn(C)c(=O)c3cc(C(=O)NC4CCCN(CCCCCOc5ccc6c(c5)C(=O)N(C5CCC(=O)NC5=O)C6=O)CC4)sc23)cc(OC)c1CN(C)C` (centres unmarked) [Compound D87], the DC50 is less than 10 nM.
Same read-out and setting: in the case of `COc1cc(-c2cn(C)c(=O)c3cc(C(=O)NCC4CC5(CCN(CCCN6CCN(c7ccc8c(c7)C(=O)N(C7CCC(=O)NC7=O)C8=O)CC6)CC5)CO4)sc23)cc(OC)c1CN(C)C` (centres unmarked) [Compound D49] it was less than 10 nM.
For the molecule `COc1cc(-c2cn(C)c(=O)c3cc(C(=O)NC4C[C@@H]5CN(C(=O)CCN6CCN(c7ccc8c(c7)C(=O)N(C7CCC(=O)NC7=O)C8=O)CC6)C[C@H]45)sc23)cc(OC)c1CN(C)C` (some centres unmarked) [Compound D63], the DC50 is greater than 100 nM.
Same read-out and setting: to `COc1cc(-c2cn(C)c(=O)c3cc(C(=O)NC4CCC5CN(CCCN6CCN(c7ccc8c(c7)C(=O)N(C7CCC(=O)NC7=O)C8=O)CC6)CC54)sc23)cc(OC)c1CN(C)C` (centres unmarked) [Compound D37] belongs less than 10 nM; to `COc1cc(-c2cn(C)c(=O)c3cc(C(=O)NC4CCN(C5CCN(c6ccc7c(c6)C(=O)N(C6CCC(=O)NC6=O)C7)CC5)CC4(F)F)sc23)cc(OC)c1CN(C)C` (centres unmarked) [Compound D24], less than 10 nM; to `COc1cc(-c2cn(C)c(=O)c3cc(C(=O)NCC4CC45CCN(C(=O)CCN4CCN(c6ccc7c(c6)C(=O)N(C6CCC(=O)NC6=O)C7=O)CC4)CC5)sc23)cc(OC)c1CN(C)C` (centres unmarked) [Compound D67], greater than 10 nM.
As for `COc1cc(-c2cn(C)c(=O)c3cc(C(=O)NCC4CC5(C4)CN(C(=O)CCN4CCN(c6ccc7c(c6)C(=O)N(C6CCC(=O)NC6=O)C7=O)CC4)C5)sc23)cc(OC)c1CN(C)C` (centres unmarked) [Compound D51], the DC50 is greater than 10 nM.
Still for that read-out and setting: in the case of `COc1cc(-c2cn(C)c(=O)c3cc(C(=O)NC4CCN(CCCCCOc5ccc6c(c5)C(=O)N(C5CCC(=O)NC5=O)C6=O)CC4(F)F)sc23)cc(OC)c1CN1CCC1` (centres unmarked) [Compound D28] it was less than 10 nM.
Still for that read-out and setting: to `COc1cc(-c2cn(C)c(=O)c3cc(C(=O)NCC4CC5(CCN(CCCN6CCN(c7ccc8c(c7)C(=O)N(C7CCC(=O)NC7=O)C8=O)CC6)CC5)C4)sc23)cc(OC)c1CN(C)C` (centres unmarked) [Compound D33] belongs less than 10 nM; to `COc1cc(-c2cn(C)c(=O)c3cc(C(=O)NC4CCN(CCCCCOc5ccc6c(c5)C(=O)N(C5CCC(=O)NC5=O)C6=O)CC4F)sc23)cc(OC)c1CN(C)C` (centres unmarked) [Compound D85], less than 10 nM; to `COc1cc(-c2cn(C)c(=O)c3scnc23)cc(OC)c1CN1CC(CN2CCC3(CC2)CN(c2ccc4c(c2)C(=O)N(C2CCC(=O)NC2=O)C4)C3)C1` (centres unmarked) [Compound D20], less than 10 nM.

The same experiment, now with this note: Table 6C; SYO-1 cells expressing 3×FLAG-NLuc-BRD9, 6 hours incubation, 1 μM top dose; read-out: SYO1 BRD9-NanoLuc degradation IC50.
In the case of `COc1cc(-c2cn(C)c(=O)c3cc(C(=O)NC4CCN(C5CCN(c6ccc7c(c6)CN(C6CCC(=O)NC6=O)C7=O)CC5(F)F)CC4)sc23)cc(OC)c1CN(C)C` (centres unmarked) [Compound D127], the DC50 was less than 10 nM.
On the same count and under the same terms, to `COc1cc(-c2cn(C)c(=O)c3cc(C(=O)NC4CN(c5ccc6c(c5)C(=O)N(C5CCC(=O)NC5=O)C6)CC4(F)F)sc23)cc(OC)c1CN(C)C` (centres unmarked) [Compound D177] belongs less than 10 nM; to `COc1cc(-c2cn(C)c(=O)c3ccsc23)cc(OC)c1CN1CC(Oc2ccc3c(c2)CN(C2CCC(=O)NC2=O)C3=O)C1` (centres unmarked) [Compound D170], less than 10 nM.
The same measure, in the same setting: in the case of `COc1cc(-c2cn(C)c(=O)c3c(C)csc23)cc(OC)c1CN1CCC(CN2CCC3(CC2)CN(c2ccc4c(c2)C(=O)N(C2CCC(=O)NC2=O)C4=O)C3)CC1` (centres unmarked) [Compound D161] it was less than 10 nM.
Same read-out and setting: to `COc1cc(-c2cn(C)c(=O)c3ccsc23)cc(OC)c1CN1CCC(CN2CCC3(CC2)CC(Oc2ccc4c(c2)C(=O)N(C2CCC(=O)NC2=O)C4=O)C3)CC1` (centres unmarked) [Compound D189] belongs less than 10 nM; to `COc1cc(-c2cn(C)c(=O)c3cc(C(=O)NC4CCN(c5ccc6c(c5)C(=O)N(C5CCC(=O)NC5=O)C6=O)CC4(F)F)sc23)cc(OC)c1CN(C)C` (centres unmarked) [Compound D192], less than 10 nM.
In the case of `COc1cc(-c2cn(C)c(=O)c3cc(C(=O)N(C)C)sc23)cc(OC)c1CN1CCC2(CC1)CN(c1ccc3c(c1)C(=O)N(C1CCC(=O)NC1=O)C3)C2` (centres unmarked) [Compound D133], the DC50 was less than 10 nM.
On to `COc1cc(-c2cn(C)c(=O)c3cc(C(=O)NC4CCN(C5CC6(C5)CN(c5ccc7c(c5)CN(C5CCC(=O)NC5=O)C7=O)C6)CC4(F)F)sc23)cc(OC)c1CN(C)C` (centres unmarked) [Compound D137], for which the DC50 is greater than 100 nM.
Still for that read-out and setting: to `COc1cc(OC)cc(-c2cn(C)c(=O)c3cc(C(=O)NC4CCN(C5CCN(c6ccc7c(c6)C(=O)N(C6CCC(=O)NC6=O)C7)CC5)CC4(F)F)sc23)c1` (centres unmarked) [Compound D98] belongs less than 10 nM; to `COc1cc(-c2cn(C)c(=O)c3cc(C(=O)NC4CCN(c5cccc(CN6CCC(=O)NC6=O)c5)CC4)sc23)cc(OC)c1CN(C)C` [Compound D124], less than 10 nM.
`COc1cc(-c2cn(C)c(=O)c3cc(C(=O)NC4CCN(c5ccc(OC6CCC(=O)NC6=O)cc5)CC4)sc23)cc(OC)c1CN(C)C` (centres unmarked) [Compound D105]: the DC50 is less than 10 nM.
On the same count and under the same terms, to `COc1cc(-c2cn(C)c(=O)c3cc(C(C)C)sc23)cc(OC)c1CN1CCC2(CC1)CN(c1ccc3c(c1)C(=O)N(C1CCC(=O)NC1=O)C3)C2` (centres unmarked) [Compound D110] belongs less than 10 nM.
The same measure, in the same setting: to `COc1cc(-c2cn(C)c(=O)c3cc(C(=O)N[C@@H]4CCN(C5CCN(c6ccc7c(c6)C(=O)N(C6CCC(=O)NC6=O)C7)CC5)CC4(F)F)sc23)cc(OC)c1CN(C)C` (some centres unmarked) [Compound D162] belongs less than 10 nM; to `COc1cc(-c2cn(C)c(=O)c3cc(C(=O)NC4CCN(CCCCCOc5ccc6c(c5)C(=O)N(C5CCC(=O)NC5=O)C6)CC4(F)F)sc23)cc(OC)c1CN(C)C` (centres unmarked) [Compound D159], less than 10 nM.
